Results: paper PMC9258321, “Structure-guided design of CPPC-paired disulfide-rich peptide libraries for ligand and drug discovery” (Chemical Science, 2022)
Bridge positions count the residues as written; N and C are the ends. Peptide text beside a SMILES is read from it. * marks the point of attachment. FITC = O=C1OC2(c3ccc(O)cc3Oc3cc(O)ccc32)c2ccc(NC(=S)*)cc21; βAla = NCCC(=O)O

Tests used:
[1] = system: CD28 expressed on the surface of HEK293T cells; assay: Laser confocal cell imaging, labeling CD28 on HEK293T cells; format: cell-based; conditions: HEK293T cells transfected with mCherry-CD28 vs mCherry control; 1 μM peptide in DMEM, 30 min, washed; confocal colocalization
Description: Finally, we examined the specific binding capability of drp8 to CD28 expressed on the surface of the cells. HEK293T cells transfected with a plasmid expressing the extracellular domain of CD28 fused with an extracellular-targeting signaling sequence, a fluorescent mCherry tag, and a transmembrane domain was constructed for the experiments. Briefly, the transfected cells were incubated with the fluorescein-labeled drp8 for 30 min, followed by washing with culture media to remove the unbound peptide. Confocal fluorescence images were then recorded (Fig. 5d), showing the colocalization of fluorescence from the mCherry tag and the labeled peptide.
Surface plasmon resonance (SPR) assay
The affinity of peptides to Keap1 was measured using Biacore T200 (GE healthcare) at 25℃. […]
NMR samples were dissolved in 80% perdeuterated acetonitrile and 20% H2O for drp1, 75% perdeu-terated acetonitrile and […] for drp2-a, 60% perdeuterated acetonitrile and 40% H2O for drp8, 50% perdeuterated acetonitrile and 50% H2O for drp3 and drp6, 40% perdeuterated acetonitrile and 60% H2O for drp2-b and drp4 (The solution conditions depend on the dispersion of cross -peaks). […] Two dimensional (2D) 1H, 15N/13C HSQC spectra were recorded to obtain chemical shifts of heavy atoms in backbone and side-chains. […]

CD28 [2] = target: T1, CD28 (Homo sapiens, UniProt P10747); assay: FP assay: CD80 added to premixed oxidized FITC-drp8 and CD28; format: binding; conditions: CD80 50-500 nM added to 25 nM oxidized FITC-drp8 and 100 nM CD28, PBS pH 7.4, 20 min room temperature, Fig. S22
T1 construct: purchased Sino Biological 11524-HCCH
Description: (§1) min incubation at room temperature, the fluorescence anisotropies were measured using a plate reader (Eex= 485 nm, Eem=535 nm). All of the measurements were recorded in triplicate. In the fluorescence polarization assay s measuring the binding of reduced FITC-drp8 to CD28 and the binding of oxidized FITC-drp8 to CTLA-4, the fluorescence anisotrop ies were recorded in the same way as described above.
(§2) Dissociation constants ( KD) were determined by nonlinear regression analysis of anisotrop ies versus the concentrations of the protein using the following equation: […]
(§3) Y = A1 + (A2 − A1) × { 2×C } (1)
(§4) X: the concentration of protein, Y: the measured fluorescence anisotropy, C: the concentration of fluores-cent peptide, A1: the bottom plateaus of anisotropy, A2: the anisotropy signal in the presence of saturating concentrations of CD28, KD: the dissociation constant.
(§5) (b) Competition fluorescence polarization assay. The binding of drp8 to CD28 was measured by adding dilutions of drp8 to premixed oxidized FITC-drp8 and CD28 in PBS (pH 7.4). […] After 10 min incubation at room temperature, the plate was read using a plate reader (Eex= 485 nm, Eem = 535 nm). In the competition fluorescence polarization assay measuring the binding of drp1, drp7 and drp9 to CD28, the fluorescence anisotropies were recorded in the same way as described above. […]

CTLA-4 = assay: Fluorescence polarization binding assay to CTLA-4; conditions: FP assay, oxidized fluorescein-labeled peptide; Fig. S23
Description: as §1, §2, §3, §4, §5

CD28 [3] = target: T1, CD28; assay: Competition fluorescence polarization assay with oxidized FITC-drp8 as probe; format: binding; conditions: FP competition with oxidized FITC-drp8; negative control
Description: as §1, §2, §3, §4, §5

T1 sequence (P10747 19-220): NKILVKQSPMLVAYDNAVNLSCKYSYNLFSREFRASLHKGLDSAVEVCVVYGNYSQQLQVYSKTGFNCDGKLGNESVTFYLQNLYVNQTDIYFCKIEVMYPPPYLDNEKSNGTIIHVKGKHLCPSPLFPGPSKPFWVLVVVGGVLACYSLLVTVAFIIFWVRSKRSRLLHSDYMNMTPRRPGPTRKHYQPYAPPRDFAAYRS

Compound: CC(C)C[C@@H]1NC(=O)CNC(=O)[C@H](CCC(=O)O)NC(=O)[C@@H]2CSSC[C@H](NC(=O)[C@H](CC(N)=O)NC(=O)[C@H](CC(N)=O)NC1=O)C(=O)N[C@@H](Cc1c[nH]c3ccccc13)C(=O)N[C@@H](Cc1ccccc1)C(=O)N[C@@H](C(C)C)C(=O)N[C@@H](CCC(=O)O)C(=O)N[C@@H](C)C(=O)N[C@H]1CSSC[C@H](NC(=O)CNC(=O)CCNC(=S)Nc3ccc4c(c3)C(=O)OC43c4ccc(O)cc4Oc4cc(O)ccc43)C(=O)N3CCC[C@H]3C(=O)N3CCC[C@H]3C(=O)N[C@@H](CSSC[C@@H](C(N)=O)NC(=O)[C@@H]3CCCN3C(=O)[C@@H]3CCCN3C1=O)C(=O)N1CCC[C@H]1C(=O)N[C@@H](CCCNC(=N)N)C(=O)N[C@@H](CCC(=O)O)C(=O)N[C@@H](Cc1c[nH]cn1)C(=O)N[C@@H](CCC(=O)O)C(=O)N[C@@H](CC(C)C)C(=O)N[C@@H](C(C)C)C(=O)N[C@@H](C)C(=O)N[C@@H](C(C)C)C(=O)N1CCC[C@H]1C(=O)N2 [FITC-drp8] ({FITC-βAla}-GCPPCPREHELVAVPCEGLNNCWFVEACPPC-NH2; disulfide 2-28, 5-31, 16-22)
- binding to CD28 on the cell surface (in words) [1]: can specifically bind with CD28 on the live cell surface

Compound: CC(C)C[C@@H]1NC(=O)CNC(=O)[C@H](CCC(=O)O)NC(=O)[C@@H]2CSSC[C@H](NC(=O)[C@H](CC(N)=O)NC(=O)[C@H](CC(N)=O)NC1=O)C(=O)N[C@@H](Cc1c[nH]c3ccccc13)C(=O)N[C@@H](Cc1ccccc1)C(=O)N[C@@H](C(C)C)C(=O)N[C@@H](CCC(=O)O)C(=O)N[C@@H](C)C(=O)N[C@H]1CSSC[C@H](NC(=O)CN)C(=O)N3CCC[C@H]3C(=O)N3CCC[C@H]3C(=O)N[C@@H](CSSC[C@@H](C(N)=O)NC(=O)[C@@H]3CCCN3C(=O)[C@@H]3CCCN3C1=O)C(=O)N1CCC[C@H]1C(=O)N[C@@H](CCCNC(=N)N)C(=O)N[C@@H](CCC(=O)O)C(=O)N[C@@H](Cc1c[nH]cn1)C(=O)N[C@@H](CCC(=O)O)C(=O)N[C@@H](CC(C)C)C(=O)N[C@@H](C(C)C)C(=O)N[C@@H](C)C(=O)N[C@@H](C(C)C)C(=O)N1CCC[C@H]1C(=O)N2 [drp8] (H-GCPPCPREHELVAVPCEGLNNCWFVEACPPC-NH2; disulfide 2-28, 5-31, 16-22)
- competition with CD80 for CD28 (in words) (CD28 [2]): capable of blocking the CD80 and CD28 interaction
- binding affinity to CTLA4 (in words) (CTLA-4): negligible binding affinity

Compound: H-CPPCHGRPTCDSFTNCWELLTCPPC-NH2 (also: bicyclic or more (positions not given here)) [drp1, template and negative control for CD28]
- binding to CD28 in competition assay (in words) (CD28 [3]): negligibly binds with CD28
